The values that follow come from article PMC7006505, “Chemical biology tools for probing transcytosis at the blood–brain barrier” (Chemical Science, 2019).

In one test the target is TfR. As to conditions: micromolar affinity; read-out: affinity towards the receptor (TfR); cited from earlier work. An excerpt: To enable targeted brain delivery, we chose to functionalise our scaffold with established ligands that engage the transferrin receptor (TfR) and low-density lipoprotein-receptor related protein (LRP1). The relative abundance of these receptors on brain endothelial, alongside their high transport capacity, made them ideal targets for RMT mediated delivery and both have been actively explored in research.[8],[14]–[16]

For test [1], the target named is T1, extracellular subunit of TfR recombinant human protein, N-His Tag (Homo sapiens, UniProt P02786).
T1 construct: extracellular subunit of TfR; purchased Life Technologies
Description: TfR binding ELISA (FAM-labelled shuttles on TfR-coated plates). As to conditions: plates coated with 1 µg/ml TfR, 1 h at room temp in PBS, anti-FAM HRP antibody (streptavidin peroxidase for Tf-biotin), absorption 450 nm, read-out: apparent binding affinity (EC50) to TfR. How it is done: To evaluate functionality of the conjugated peptides, in vitro analyses were performed. TfR binding was assessed through an ELISA format, whereby FAM-conjugated shuttles were serially diluted and added to plates that were coated with TfR protein. FAM-labelled vehicles were detected by an anti-FAM HRP-conjugated antibody.
The procedure was performed at room temp on a shaking platform using PBS-Tween (0.05%) for the wash steps. Nickel coated clear 96-well plates (Pierce) was coated overnight with 1 µg/ml of the extracellular subunit of TfR recombinant human protein, N-His Tag (Life Technologies) in 0.5 M Carbonate buffer. The plates were washed (5 × 150 µL) and blocked for 1 h with PBS containing 1% BSA. 100 µL of the compound dilutions in PBS were transferred to the plate and incubated for 1 h at room temp, after which time the plates were washed (5 × 150 µL). A Goat anti-FAM peroxidase labelled antibody (Abcam, 1:100 000) was added to the wells and incubated for 30 min. Following 6 washes, 50 µL of TMB Substrate Solution (Sigma) was added per well and incubated for a further 30 min. After addition of 50 µL of 2 M sulphuric acid to each well , receptor complexes were detected by measuring absorption at 450 nm. The procedure for determining the binding affinity of biotin labelled Tf (Sigma) was similar except streptavidin peroxidas e (ThermoFisher Scientific) (1:20 000) was used to measure the Tf -receptor complex.
Imaging and Immunochemistry
Colocalis ation of delivery scaffolds with LAMP1 and Tf -A647 bEND.3 cells were seeded at a density of 1 x 10^4 cells/we ll in 8-well glass plates (ibidi ) coated with rat tail collagen. After 3 days at 100 % confluence, cells were washed with PBS (3 × 180 µL), and co-incubated with brain delivery scaffolds (5 µM) and Tf-A647 (50 µg/ml) at 37 °C for 2 h in FluoroBrite DMEM media (Thermofisher). Cells were washed with PBS (3 × 180 µL), then fixed with 4 % paraformaldehyde for 15 min at room temperature. […]
For orientation: An ELISA detects its analyte on a solid surface through an enzyme-linked reagent.

T1 sequence (P02786 89-760 limits assumed): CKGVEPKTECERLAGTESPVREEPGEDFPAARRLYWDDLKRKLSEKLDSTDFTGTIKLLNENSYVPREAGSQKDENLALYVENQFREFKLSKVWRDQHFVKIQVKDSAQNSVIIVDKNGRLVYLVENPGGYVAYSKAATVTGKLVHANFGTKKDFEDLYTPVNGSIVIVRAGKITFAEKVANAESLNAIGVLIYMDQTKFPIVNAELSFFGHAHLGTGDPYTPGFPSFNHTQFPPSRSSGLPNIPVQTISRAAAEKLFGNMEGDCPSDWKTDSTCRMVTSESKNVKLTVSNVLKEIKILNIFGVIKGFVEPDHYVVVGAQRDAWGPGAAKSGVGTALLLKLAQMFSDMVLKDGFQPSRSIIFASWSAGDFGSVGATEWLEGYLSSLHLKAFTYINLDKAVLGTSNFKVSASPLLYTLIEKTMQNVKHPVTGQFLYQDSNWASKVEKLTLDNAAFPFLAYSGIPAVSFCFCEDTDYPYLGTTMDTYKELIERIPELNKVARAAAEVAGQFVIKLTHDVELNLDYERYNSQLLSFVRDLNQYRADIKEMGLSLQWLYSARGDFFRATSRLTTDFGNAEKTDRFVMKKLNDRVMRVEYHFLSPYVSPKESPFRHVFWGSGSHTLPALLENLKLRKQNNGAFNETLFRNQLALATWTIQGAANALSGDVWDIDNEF

For HAIYPRH [TfRL2], the Kd on TfR was 440 µM. With “Tf-biotin: biotin labelled transferrin (Sigma) [reference compound]”, the EC50 (usually the concentration at which the effect is half-maximal) in test [1] worked out at 0.0209 ± 0.0021 µM.
